US6521649B1 (priority 1995, dated 2003)
Counter-ions that a name gives are not always drawn.

SMILES	melting point
CCc1nnsc1C(=O)O (as salt: sodium) [compound 176, sodium 4-ethyl-1,2,3-thiadiazole-5-carboxylate]	250 °C (dec.)
CCc1nnsc1C(=O)O [compound 178, t-butylammonium 4-ethyl-1,2,3-thiadiazole-5-carboxylate]	105 to 107 °C
